Laboratory results as given in patent US8309577B2, “Quinuclidine compounds as α-7 nicotinic acetylcholine receptor ligands” (Bristol-Myers Squibb Company, priority 2008, dated 2012).

molecular target: T1, α-7 nicotinic acetylcholine receptor channel expressed in HEK 293 cells (Rattus norvegicus, UniProt Q05941); test: Ca2+-sensitive fluorescence-based FLIPR assay, α7 nicotinic ACh receptor channel function (agonist); type: cell-based; details: FLIPR α7 (EC50, nM), Table Ib; HEK 293 cells, agonist Ca2+ flux
T1 construct: expressed in transfected cells
T1 sequence (Q05941 23-502): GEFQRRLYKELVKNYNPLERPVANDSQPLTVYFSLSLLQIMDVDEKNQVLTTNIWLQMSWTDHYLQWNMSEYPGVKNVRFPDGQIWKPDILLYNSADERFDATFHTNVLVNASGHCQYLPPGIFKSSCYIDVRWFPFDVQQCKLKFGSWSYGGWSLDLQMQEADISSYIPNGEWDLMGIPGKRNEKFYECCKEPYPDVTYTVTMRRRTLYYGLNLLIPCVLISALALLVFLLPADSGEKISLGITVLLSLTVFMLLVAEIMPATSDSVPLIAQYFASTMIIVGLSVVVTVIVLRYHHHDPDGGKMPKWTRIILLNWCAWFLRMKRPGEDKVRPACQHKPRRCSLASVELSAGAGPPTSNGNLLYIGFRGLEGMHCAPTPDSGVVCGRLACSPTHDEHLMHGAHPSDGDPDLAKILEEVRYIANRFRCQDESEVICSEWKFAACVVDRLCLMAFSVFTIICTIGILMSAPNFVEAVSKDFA
How it was run: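 Potency and efficacy derived from kinetic FLIPR Ca²⁺-flux fluorescence, recorded 3 min after compound addition in Hanks buffer following a 10 s baseline.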

Row | SMILES | EC50
1 | Clc1cncc(-c2ccnc(NC3=NC[C@@]4(CN5CCC4CC5)O3)c2)c1 [Example 297, (R)—N-(5-Chloro-3,4′-bipyridin-2′-yl)-4H-1′-azaspiro[oxazole-5,3′-bicyclo[2.2.2]octan]-2-amine] | 35 nM
2 | COc1ccc(-c2ccnc(NC3=NC[C@@]4(CN5CCC4CC5)O3)c2)cn1 [Example 298, (R)—N-(6-Methoxy-3,4′-bipyridin-2′-yl)-4H-1′-azaspiro[oxazole-5,3′-bicyclo[2.2.2]octan]-2-amine] | 25 nM
3 | c1ccc(-c2ccnc(NC3=NC[C@@]4(CN5CCC4CC5)O3)c2)cc1 [Example 302, (R)—N-(4-Phenylpyridin-2-yl)-4H-1′-azaspiro[oxazole-5,3′-bicyclo[2.2.2]octan]-2-amine] | 9 nM
4 | Cc1nc(NC2=NC[C@@]3(CN4CCC3CC4)O2)c(Cl)cc1Cl [Example 308, (R)—N-(3,5-Dichloro-6-methylpyridin-2-yl)-4H-1′-azaspiro[oxazole-5,3′-bicyclo[2.2.2]octan]-2-amine] | 59 nM
5 | COc1cnc(NC2=NC[C@@]3(CN4CCC3CC4)O2)nc1Cl [Example 317, (R)—N-(4-Chloro-5-methoxypyrimidin-2-yl)-4H-1′-azaspiro[oxazole-5,3′-bicyclo[2.2.2]octan]-2-amine] | 660 nM

same assay, conditions: FLIPR α7 activity rating (EC50, nM), Table 1; HEK 293 cells, agonist Ca2+ flux

Row | SMILES | EC50
6 | Clc1ccc2cnc(NC3=NC[C@@]4(CN5CCC4CC5)O3)cc2c1Cl [Example 281, (R)—N-(5,6-Dichloroisoquinolin-3-yl)-4H-1′-azaspiro[oxazole-5,3′-bicyclo[2.2.2]octan]-2-amine] | < 100 nM
7 | Clc1ccnc(NC2=NC[C@@]3(CN4CCC3CC4)O2)c1Cl [Example 282, (R)—N-(3,4-Dichloropyridin-2-yl)-4H-1′-azaspiro[oxazole-5,3′-bicyclo[2.2.2]octan]-2-amine] | 100 to 1000 nM
8 | Clc1cccnc1NC1=NC[C@@]2(CN3CCC2CC3)O1 [Example 283, (R)—N-(3-Chloropyridin-2-yl)-4H-1′-azaspiro[oxazole-5,3′-bicyclo[2.2.2]octan]-2-amine] | 100 to 1000 nM
9 | Fc1cc(Cl)cnc1NC1=NC[C@@]2(CN3CCC2CC3)O1 [Example 284, (R)—N-(5-Chloro-3-fluoropyridin-2-yl)-4H-1′-azaspiro[oxazole-5,3′-bicyclo[2.2.2]octan]-2-amine] | < 100 nM
10 | Clc1cccc(NC2=NC[C@@]3(CN4CCC3CC4)O2)n1 [Example 285, (R)—N-(6-Chloropyridin-2-yl)-4H-1′-azaspiro[oxazole-5,3′-bicyclo[2.2.2]octan]-2-amine] | 100 to 1000 nM
11 | Clc1cc(Cl)nc(NC2=NC[C@@]3(CN4CCC3CC4)O2)c1 [Example 286, (R)—N-(4,6-Dichloropyridin-2-yl)-4H-1′-azaspiro[oxazole-5,3′-bicyclo[2.2.2]octan]-2-amine] | 100 to 1000 nM
12 | COc1ncccc1-c1ccnc(NC2=NC[C@@]3(CN4CCC3CC4)O2)c1 [Example 287, (R)—N-(2-methoxy-3,4′-bipyridin-2′-yl)-4H-1′-azaspiro[oxazole-5,3′-bicyclo[2.2.2]octan]-2-amine] | 100 to 1000 nM
13 | c1ccc2oc(NC3=NC[C@@]4(CN5CCC4CC5)O3)nc2c1 [Example 288, (R)—N-(Benzo[d]oxazol-2-yl)-4H-1′-azaspiro[oxazole-5,3′-bicyclo[2.2.2]octan]-2-amine] | < 100 nM
14 | Clc1ccc2oc(NC3=NC[C@@]4(CN5CCC4CC5)O3)nc2c1 [Example 289, (R)—N-(5-Chlorobenzo[d]oxazol-2-yl)-4H-1′-azaspiro[oxazole-5,3′-bicyclo[2.2.2]octan]-2-amine] | < 100 nM
15 | c1cnc2nc(NC3=NC[C@@]4(CN5CCC4CC5)O3)oc2c1 [Example 290, (R)—N-(Oxazolo[4,5-b]pyridin-2-yl)-4H-1′-azaspiro[oxazole-5,3′-bicyclo[2.2.2]octan]-2-amine] | < 100 nM
16 | Cc1ccc2cnc(NC3=NC[C@@]4(CN5CCC4CC5)O3)cc2c1 [Example 291, (R)—N-(6-Methylisoquinolin-3-yl)-4H-1′-azaspiro[oxazole-5,3′-bicyclo[2.2.2]octan]-2-amine] | < 100 nM
17 | Brc1ccc2cnc(NC3=NC[C@@]4(CN5CCC4CC5)O3)cc2c1 [Example 292, (R)—N-(6-Bromoisoquinolin-3-yl)-4H-1′-azaspiro[oxazole-5,3′-bicyclo[2.2.2]octan]-2-amine] | < 100 nM
18 | Brc1ccc2cc(NC3=NC[C@@]4(CN5CCC4CC5)O3)ncc2c1 [Example 293, (R)—N-(7-Bromoisoquinolin-3-yl)-4H-1′-azaspiro[oxazole-5,3′-bicyclo[2.2.2]octan]-2-amine] | 100 to 1000 nM
19 | Brc1cccc2cnc(NC3=NC[C@@]4(CN5CCC4CC5)O3)cc12 [Example 294, (R)—N-(5-bromoisoquinolin-3-yl)-4H-1′-azaspiro[oxazole-5,3′-bicyclo[2.2.2]octan]-2-amine] | < 100 nM
20 | Cc1cc(C)c2cnc(NC3=NC[C@@]4(CN5CCC4CC5)O3)cc2c1 [Example 295, (2R)—N-(6,8-Dimethyl-3-isoquinolinyl)-4′H-spiro[4-azabicyclo[2.2.2]octane-2,5′-[1,3]oxazol]-2′-amine] | 100 to 1000 nM

same assay, conditions: FLIPR α7 activity rating (EC50, nM), Table Ib; HEK 293 cells, agonist Ca2+ flux

Row | SMILES | EC50
21 | c1cncc(-c2ccnc(NC3=NC[C@@]4(CN5CCC4CC5)O3)c2)c1 [Example 296, (R)—N-(3,4′-Bipyridin-2′-yl)-4H-1′-azaspiro[oxazole-5,3′-bicyclo[2.2.2]octan]-2-amine] | < 100 nM
22 | Clc1cncc(-c2ccnc(NC3=NC[C@@]4(CN5CCC4CC5)O3)c2)c1 [Example 297, (R)—N-(5-Chloro-3,4′-bipyridin-2′-yl)-4H-1′-azaspiro[oxazole-5,3′-bicyclo[2.2.2]octan]-2-amine] | < 100 nM
23 | COc1ccc(-c2ccnc(NC3=NC[C@@]4(CN5CCC4CC5)O3)c2)cn1 [Example 298, (R)—N-(6-Methoxy-3,4′-bipyridin-2′-yl)-4H-1′-azaspiro[oxazole-5,3′-bicyclo[2.2.2]octan]-2-amine] | < 100 nM
24 | Fc1ccc(-c2ccnc(NC3=NC[C@@]4(CN5CCC4CC5)O3)c2)cn1 [Example 299, (R)—N-(6-Fluoro-3,4′-bipyridin-2′-yl)-4H-1′-azaspiro[oxazole-5,3′-bicyclo[2.2.2]octan]-2-amine] | < 100 nM
25 | Fc1ccc(-c2ccnc(NC3=NC[C@@]4(CN5CCC4CC5)O3)c2)cc1Cl [Example 300, (R)—N-(4-(3-Chloro-4-fluoro-phenyl)pyridin-2-yl)-4H-1′-azaspiro[oxazole-5,3′-bicyclo[2.2.2]octan]-2-amine] | < 100 nM
26 | Cc1cccc(-c2ccnc(NC3=NC[C@@]4(CN5CCC4CC5)O3)c2)c1 [Example 301, (R)—N-(4-m-Tolylpyridin-2-yl)-4H-1′-azaspiro[oxazole-5,3′-bicyclo[2.2.2]octan]-2-amine] | < 100 nM
27 | c1ccc(-c2ccnc(NC3=NC[C@@]4(CN5CCC4CC5)O3)c2)cc1 [Example 302, (R)—N-(4-Phenylpyridin-2-yl)-4H-1′-azaspiro[oxazole-5,3′-bicyclo[2.2.2]octan]-2-amine] | < 100 nM
28 | Cn1cc(-c2ccnc(NC3=NC[C@@]4(CN5CCC4CC5)O3)c2)cn1 [Example 303, (R)—N-(4-(1-Methyl-1H-pyrazol-4-yl)pyridin-2-yl)-4H-1′-azaspiro[oxazole-5,3′-bicyclo[2.2.2]octan]-2-amine] | < 100 nM
29 | c1cc(-c2cscn2)cc(NC2=NC[C@@]3(CN4CCC3CC4)O2)n1 [Example 304, (R)—N-(4-(Thiazol-4-yl)pyridin-2-yl)-4H-1′-azaspiro[oxazole-5,3′-bicyclo[2.2.2]octan]-2-amine] | < 100 nM
30 | O=[N+]([O-])c1ccc(-c2ccnc(NC3=NC[C@@]4(CN5CCC4CC5)O3)c2)cn1 [Example 305, (R)—N-(6-Nitro-3,4′-bipyridin-2′-yl)-4H-1′-azaspiro[oxazole-5,3′-bicyclo[2.2.2]octan]-2-amine] | < 100 nM
31 | Cc1nc(NC2=NC[C@@]3(CN4CCC3CC4)O2)ccc1Cl [Example 306, (R)—N-(5-Chloro-6-methylpyridin-2-yl)-4H-1′-azaspiro[oxazole-5,3′-bicyclo[2.2.2]octan]-2-amine] | < 100 nM
32 | Cc1cc(NC2=NC[C@@]3(CN4CCC3CC4)O2)ncc1F [Example 307, (R)—N-(5-Fluoro-4-methylpyridin-2-yl)-4H-1′-azaspiro[oxazole-5,3′-bicyclo[2.2.2]octan]-2-amine] | < 100 nM
33 | Cc1nc(NC2=NC[C@@]3(CN4CCC3CC4)O2)c(Cl)cc1Cl [Example 308, (R)—N-(3,5-Dichloro-6-methylpyridin-2-yl)-4H-1′-azaspiro[oxazole-5,3′-bicyclo[2.2.2]octan]-2-amine] | < 100 nM
34 | Cc1cnc(NC2=NC[C@@]3(CN4CCC3CC4)O2)cc1C [Example 309, (R)—N-(4,5-Dimethylpyridin-2-yl)-4H-1′-azaspiro[oxazole-5,3′-bicyclo[2.2.2]octan]-2-amine] | < 100 nM
35 | COc1ccc(NC2=NC[C@@]3(CN4CCC3CC4)O2)nc1 [Example 310, (R)—N-(5-Methoxypyridin-2-yl)-4H-1′-azaspiro[oxazole-5,3′-bicyclo[2.2.2]octan]-2-amine] | < 100 nM
36 | Clc1c(NC2=NC[C@@]3(CN4CCC3CC4)O2)ncc2ccccc12 [Example 311, (R)—N-(4-Chloroisoquinolin-3-yl)-4H-1′-azaspiro[oxazole-5,3′-bicyclo[2.2.2]octan]-2-amine] | < 100 nM
37 | Fc1c(Cl)ccc2cc(NC3=NC[C@@]4(CN5CCC4CC5)O3)ncc12 [Example 312, (R)—N-(7-Chloro-8-fluoroisoquinolin-3-yl)-4H-1′-azaspiro[oxazole-5,3′-bicyclo[2.2.2]octan]-2-amine] | < 100 nM
38 | Cc1nc(NC2=NC[C@@]3(CN4CCC3CC4)O2)cc2ccccc12 [Example 313, (R)—N-(1-Methylisoquinolin-3-yl)-4H-1′-azaspiro[oxazole-5,3′-bicyclo[2.2.2]octan]-2-amine] | < 100 nM
39 | Fc1ccc(-c2cc(NC3=NC[C@@]4(CN5CCC4CC5)O3)ncn2)cc1 [Example 314, (R)—N-(6-(4-Fluorophenyl)pyrimidin-4-yl)-4H-1′-azaspiro[oxazole-5,3′-bicyclo[2.2.2]octan]-2-amine] | < 100 nM
40 | Fc1cccc(-c2cc(NC3=NC[C@@]4(CN5CCC4CC5)O3)ncn2)c1 [Example 315, (R)—N-(6-(3-Fluorophenyl)pyrimidin-4-yl)-4H-1′-azaspiro[oxazole-5,3′-bicyclo[2.2.2]octan]-2-amine] | < 100 nM
41 | Fc1cnc(NC2=NC[C@@]3(CN4CCC3CC4)O2)nc1 [Example 316, (R)—N-(5-Fluoropyrimidin-2-yl)-4H-1′-azaspiro[oxazole-5,3′-bicyclo[2.2.2]octan]-2-amine] | < 100 nM
42 | COc1cnc(NC2=NC[C@@]3(CN4CCC3CC4)O2)nc1Cl [Example 317, (R)—N-(4-Chloro-5-methoxypyrimidin-2-yl)-4H-1′-azaspiro[oxazole-5,3′-bicyclo[2.2.2]octan]-2-amine] | 100 to 1000 nM
43 | Fc1cc(F)c2cnc(NC3=NC[C@@]4(CN5CCC4CC5)O3)cc2c1 [Example 318, (R)—N-(6,8-Difluoroisoquinolin-3-yl)-4H-1′-azaspiro[oxazole-5,3′-bicyclo[2.2.2]octan]-2-amine] | < 100 nM
